Laboratory results: patent US20190247398A1, “FORMULATIONS OF A MACROCYCLIC TRK KINASE INHIBITOR” (Array BioPharma Inc., priority 2017, published 2019)
Like-named read-outs stand apart in the source and are kept apart here.

How the values were obtained:
[1] = acid counterion; cited from earlier work
[2] = Salt stability studies (40° C./75% RH for 1 week, XRPD); format: physicochemical
Method: Recovered salts were placed in an oven at 40° C./75% RH for 1 week, and the resultant materials were analyzed by XRPD to determine any changes to form or crystallinity.

[3] = Solvent solubility of Compound 1 free base (stepwise solvent addition to amorphous material); format: physicochemical; details: 40 °C, thermodynamic from solid, read-out: Approx. Solubility
Method: A solid Compound 1 was obtained as follows. A […] of solution containing about 330 mg of Compound 1 in warm 1,4-dioxane was divided between 33, 2 mL glass vials (1.5 mL in each). The solutions were frozen and freeze-dried by lyophilization overnight. The resulting material was then analyzed by XRPD to confirm mostly amorphous material.
Approximately 10 mg of amorphous Compound 1 was produced in 32×2 mL glass vials from freeze drying and 100 μL of the appropriate solvent system was added to the appropriate vial. Between each addition, the mixture was checked for dissolution and if no dissolution was apparent, the mixture was heated to about 40° C. and checked again. This procedure was continued until dissolution was observed or until 2 mL had been added (to the compound concentration of <5 mg/mL).

[4] = 1 week stability tests (40° C./75% RH, 80° C., ambient light; XRPD and UPLC); format: physicochemical

O=S(=O)(O)CCO [2-Hydroxy ethanesulfonic acid]
pKa 1 [1]: 1.66

C[C@@H]1CCc2ncc(F)cc2[C@H]2CCCN2c2ccn3ncc(c3n2)C(=O)N1.O=C(O)C[C@H](O)C(=O)O [Compound 1 L-malate]
changes to form or crystallinity after stability conditions (XRPD) ([2]; salt recovered from TBME): no change to crystallinity and form

C[C@@H]1CCc2ncc(F)cc2[C@H]2CCCN2c2ccn3ncc(c3n2)C(=O)N1 [Compound 1 edisylate]
changes to form or crystallinity after stability conditions (XRPD) ([2]; salt recovered from isopropanol): become amorphous

C[C@@H]1CCc2ncc(F)cc2[C@H]2CCCN2c2ccn3ncc(c3n2)C(=O)N1.O=C(O)/C=C/C(=O)O [Compound 1 fumarate]
changes to form or crystallinity after stability conditions (XRPD) ([2]; salt recovered from acetone): a slight decrease to crystallinity however, no change to form

C[C@@H]1CCc2ncc(F)cc2[C@H]2CCCN2c2ccn3ncc(c3n2)C(=O)N1.O=C(O)C(=O)O [Compound 1 oxalate]
changes to form or crystallinity after stability conditions (XRPD) ([2]; salt recovered from ethanol): a change in crystallinity and form | changes to form or crystallinity after stability conditions (XRPD) ([2]; salt recovered from methanol): no change to crystallinity however, changes to form were seen

C[C@@H]1CCc2ncc(F)cc2[C@H]2CCCN2c2ccn3ncc(c3n2)C(=O)N1.O=C(O)CCC(=O)O [Compound 1 succinate]
changes to form or crystallinity after stability conditions (XRPD) ([2]; salt recovered from acetone): a decrease in crystallinity but no change to form

C[C@@H]1CCc2ncc(F)cc2[C@H]2CCCN2c2ccn3ncc(c3n2)C(=O)N1.Cc1ccc(S(=O)(=O)O)cc1 [Compound 1 tosylate]
changes to form or crystallinity after stability conditions (XRPD) ([2]; salt recovered from acetone): become amorphous

C[C@@H]1CCc2ncc(F)cc2[C@H]2CCCN2c2ccn3ncc(c3n2)C(=O)N1 [Compound 1, (6R,15R)-9-fluoro-15-methyl-2,11,16,20,21,24-hexaazapentacyclo[16.5.2.0^2,6.0^7,12.0^21,25]pentacosa-1 (24),7,9,11,18(25), 19,22-heptaen-17-one]
solubility ([3]; organic solvent or mixture, in 1-Propanol): > 100000 µg/mL | solubility ([3]; organic solvent or mixture, in 2-Methyl THF): < 5000 µg/mL | solubility ([3]; organic solvent or mixture, in Cyclohexane): < 5000 µg/mL | solubility ([3]; organic solvent or mixture, in Cyclopentylmethyl ether): < 5000 µg/mL | solubility ([3]; organic solvent or mixture, in Dichloromethane): > 100000 µg/mL | solubility ([3]; organic solvent or mixture, in Diisopropyl ether): < 5000 µg/mL | solubility ([3]; organic solvent or mixture, in Dimethylformamide): > 100000 µg/mL | solubility ([3]; organic solvent or mixture, in Ethyl acetate): < 5000 µg/mL | solubility ([3]; organic solvent or mixture, in Heptane): < 5000 µg/mL | solubility ([3]; organic solvent or mixture, in Isobutyl acetate): < 5000 µg/mL | solubility ([3]; organic solvent or mixture, in Isopropyl acetate): < 5000 µg/mL | solubility ([3]; organic solvent or mixture, in N,N-Dimethylacetamide): > 100000 µg/mL | solubility ([3]; organic solvent or mixture, in N-Methylpyrrolidone): > 100000 µg/mL | solubility ([3]; organic solvent or mixture, in TBME:Heptane (60:40 v/v)): < 5000 µg/mL | solubility ([3]; organic solvent or mixture, in TBME): < 5000 µg/mL | solubility ([3]; organic solvent or mixture, in Toluene): < 5000 µg/mL | solubility ([3]; in Water): < 5000 µg/mL | change in purity after 1 week stability test (UPLC) ([4]; 40° C./75% RH): no change in purity | change to form after 1 week stability test (XRPD) ([4]; 40° C./75% RH): no change to form | average purity after 1 week stability test (UPLC) ([4]; 40° C./75% RH (relative humidity test)): 99.2% | average purity after 1 week stability test (UPLC) ([4]; 80° C.): 99.3% | change in purity after 1 week stability test (UPLC) ([4]; 80° C.): no change in purity | change to form after 1 week stability test (XRPD) ([4]; 80° C.): no change to form | average purity after 1 week stability test (UPLC) ([4]; ambient light): 99.2% | change in purity after 1 week stability test (UPLC) ([4]; ambient light): no change in purity | change to form after 1 week stability test (XRPD) ([4]; ambient light): no change to form

O=C(O)[C@H](O)[C@@H](O)[C@H](O)[C@H](O)CO [D-Gluconic acid (50% in water), D-Gluconic acid]
pKa 1 [1]: 3.76

O=C[C@H](O)[C@@H](O)[C@H](O)[C@H](O)C(=O)O [D-Glucuronic acid]
pKa 1 [1]: 3.18

CCS(=O)(=O)O [Ethane sulfonic acid]
pKa 1 [1]: −2.05

O=C(O)CNC(=O)c1ccccc1 [Hippuric acid]
pKa 1 [1]: 3.55
